The values that follow come from ChEMBL document CHEMBL4145597, “BMS-986163, a Negative Allosteric Modulator of GluN2B with Potential Utility in Major Depressive Disorder” (ACS Med Chem Lett, 2018).

SMILES strings stand for the structures. ≈ marks a conversion by molar mass, not a printed value. Calls of active or inactive are those of the source. The rule behind the calls is not given here.

Data set [1] has as its target Glutamate receptor ionotropic, NMDA 2B (Homo sapiens, UniProt Q13224). Put plainly: (§1) Negative allosteric modulation of human GluN2B receptor expressed in Xenopus laevis oocytes assessed as inhibition of glutamate/glycine-induced channel current after 15 to 20 mins by two electrode voltage clamp based electrophysiology assay. The format is cell-based. In general terms: Two-electrode voltage clamp holds a large cell at a set potential and records current.

Data set [2] concerns the target Glutamate receptor ionotropic, NMDA 2A (Homo sapiens) (UniProt Q12879). Put plainly: Negative allosteric modulation of human GluN2A receptor expressed in Xenopus laevis oocytes assessed as inhibition of glutamate/glycine-induced channel current at 3 uM after 10 to 15 mins by two electrode voltage clamp based electrophysiology assay. The format is cell-based.
Data set [3] has as its target Glutamate receptor ionotropic, NMDA 2C (Homo sapiens) (UniProt Q14957). Put plainly: Negative allosteric modulation of human GluN2C receptor expressed in Xenopus laevis oocytes assessed as inhibition of glutamate/glycine-induced channel current at 3 uM after 10 to 15 mins by two electrode voltage clamp based electrophysiology assay. The format is cell-based.
Data set [4] has as its target Glutamate receptor ionotropic, NMDA 2D (Homo sapiens) (UniProt O15399). Put plainly: Negative allosteric modulation of human GluN2D receptor expressed in Xenopus laevis oocytes assessed as inhibition of glutamate/glycine-induced channel current at 3 uM after 10 to 15 mins by two electrode voltage clamp based electrophysiology assay. It is filed as cell-based.
Data set [5] concerns Mus musculus. Kind of data set: Ex vivo receptor occupancy at GluN2B receptor in CD-1 mouse forebrain membranes assessed as reduction in [3H]Ro 25-6981 receptor labeling at 1 mg/kg, iv incubated for 5 mins by topcount micro scintillation counting method. It is filed as functional.
A short description of data set [6]: Plasma concentration in CD-1 mouse at 0.1 to 1 mg/kg, iv. The format is ADME, organism-based. Conditions: in vivo.
The target of data set [7] is Voltage-gated inwardly rectifying potassium channel KCNH2 (Homo sapiens, UniProt Q12809). Kind of data set: Inhibition of human ERG expressed in HEK293 cells assessed as reduction in peak tail current after 2 to 5 mins by patch clamp based electrophysiology assay. It is filed as cell-based. (In general: In patch-clamp work, channel activity is measured electrically.)
Voltage-gated inwardly rectifying potassium channel KCNH2, sequence (Q12809 whole entry): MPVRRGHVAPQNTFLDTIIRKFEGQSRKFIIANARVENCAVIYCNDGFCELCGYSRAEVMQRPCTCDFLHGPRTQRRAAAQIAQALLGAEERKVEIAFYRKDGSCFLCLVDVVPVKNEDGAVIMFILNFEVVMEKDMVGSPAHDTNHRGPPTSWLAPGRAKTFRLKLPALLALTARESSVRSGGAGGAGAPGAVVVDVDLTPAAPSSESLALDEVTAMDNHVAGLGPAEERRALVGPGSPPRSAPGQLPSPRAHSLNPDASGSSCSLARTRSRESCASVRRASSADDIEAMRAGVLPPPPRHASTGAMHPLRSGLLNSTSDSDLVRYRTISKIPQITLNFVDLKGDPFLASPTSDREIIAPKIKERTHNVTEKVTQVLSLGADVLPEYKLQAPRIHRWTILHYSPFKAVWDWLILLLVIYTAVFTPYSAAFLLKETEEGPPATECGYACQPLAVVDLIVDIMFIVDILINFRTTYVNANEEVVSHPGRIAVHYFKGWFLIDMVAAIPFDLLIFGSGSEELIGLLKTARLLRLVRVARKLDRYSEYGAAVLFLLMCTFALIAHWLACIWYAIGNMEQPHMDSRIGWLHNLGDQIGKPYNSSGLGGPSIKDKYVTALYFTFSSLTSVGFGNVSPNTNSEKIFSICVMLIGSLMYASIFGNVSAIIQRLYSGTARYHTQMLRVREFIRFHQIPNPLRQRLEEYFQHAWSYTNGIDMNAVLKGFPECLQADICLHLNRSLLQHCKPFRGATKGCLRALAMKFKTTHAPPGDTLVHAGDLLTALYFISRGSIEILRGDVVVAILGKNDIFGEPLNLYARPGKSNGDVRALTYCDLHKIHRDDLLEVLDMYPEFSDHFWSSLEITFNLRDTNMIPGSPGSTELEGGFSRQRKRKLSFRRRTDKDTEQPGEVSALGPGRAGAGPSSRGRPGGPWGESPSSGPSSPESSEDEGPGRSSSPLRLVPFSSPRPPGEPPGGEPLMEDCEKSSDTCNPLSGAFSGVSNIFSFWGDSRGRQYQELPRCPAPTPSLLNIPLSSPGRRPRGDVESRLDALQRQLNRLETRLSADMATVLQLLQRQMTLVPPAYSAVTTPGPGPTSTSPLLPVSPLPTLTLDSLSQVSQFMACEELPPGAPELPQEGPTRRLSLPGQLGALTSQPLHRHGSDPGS

For data set [8], the system named is Mus musculus. Kind of data set: Ex vivo receptor occupancy at GluN2B receptor in CD-1 mouse forebrain membranes assessed as reduction in [3H]Ro 25-6981 receptor labeling at 3 mg/kg, iv incubated for 5 mins by topcount micro scintillation counting method. It is filed as functional.
Data set [9] in a line: Aqueous solubility of the compound at pH 7.4. It is filed as physicochemical. Conditions: aqueous medium.
The nature of data set [10]: Stability of the compound at 50 degC up to 4 weeks using solid state compound. The format is physicochemical. Conditions: 672 h.
The nature of data set [11]: Stability of the compound in aqueous solution at 25 degC up to 90 days. The following applies: buffer, 2160 h. It is filed as physicochemical.
Data set [12] deals with Rattus norvegicus. Put plainly: Toxicity in rat assessed as clinical pathological observations at 10 to 100 mg/kg/day administered iv. It is filed as organism-based. Conditions: in vivo.
The subject of data set [13] is Rattus norvegicus. Put plainly: Toxicity in rat assessed as histopathological observations at 10 to 100 mg/kg/day administered iv. The format is organism-based. The following applies: in vivo.
Data set [14] relates to Rhesus monkey. Put plainly: Toxicity in monkey at 3.6 to 36 mg/kg, iv administered as single dose. It is filed as organism-based, Macaca mulatta. The following applies: in vivo.
The subject of data set [15] is Rhesus monkey. Kind of data set: Cmax in monkey at 36 mg/kg, iv assessed as BMS-986169 level in plasma. The format is ADME, organism-based, Macaca mulatta. More on the design: dose 36 mg/kg, route intravenous. The following applies: in vivo.
Data set [16] has as its target Glutamate receptor ionotropic, NMDA 2B (Rattus norvegicus, UniProt Q00960). Put plainly: Displacement of [3H]Ro 25-6981 from GluN2B receptor in Sprague-Dawley rat forebrain membranes incubated for 1 hr by topcount micro scintillation counting method. Also on record: species or system Membrane. On the technique in general: Loss of bound radioactivity is the signal in a displacement assay; it reports binding, not function.

The target of data set [17] is Glutamate receptor ionotropic, NMDA 2B (Homo sapiens, UniProt Q05586+Q13224). Described as §1. It is filed as cell-based.
The subject of data set [18] is Mus musculus. Kind of data set: Ex vivo receptor occupancy at GluN2B receptor in CD-1 mouse forebrain membranes assessed as reduction in [3H]Ro 25-6981 receptor labeling at 0.3 mg/kg, iv incubated for 5 mins by topcount micro scintillation counting method. It is filed as functional.
A short description of data set [19]: Plasma concentration in CD-1 mouse at 0.3 mg/kg, iv. The format is ADME, organism-based. Conditions: in vivo.
Data set [20] is described as follows: Plasma concentration in CD-1 mouse at 1 mg/kg, iv. It is filed as ADME, organism-based. Conditions: in vivo.
For data set [21], the system named is Mus musculus. Put plainly: Antidepressant activity in CD-1 mouse assessed as decrease in immobility time administered iv 15 mins prior to test measured for 6 mins observation by forced swim test. The format is functional.
The test system of data set [22] is Mus musculus. Kind of data set: Ex vivo receptor occupancy at GluN2B receptor in CD-1 mouse forebrain membranes assessed as reduction in [3H]Ro 25-6981 receptor labeling at 0.1 to 1 mg/kg, iv incubated for 5 mins by topcount micro scintillation counting method. It is filed as functional.
A short description of data set [23]: Fraction unbound in human plasma. The format is ADME, cell-free.
The nature of data set [24]: Fraction unbound in rat plasma. It is filed as ADME, cell-free.
Data set [25] can be described thus: Fraction unbound in mouse plasma. It is filed as ADME, cell-free.
Data set [26] in a line: Dissociation constant, pKa of the compound by spectrophotometric method. It is filed as physicochemical.
Data set [27] concerns Mus musculus. Put plainly: Ex vivo receptor occupancy at GluN2B receptor in CD-1 mouse forebrain membranes assessed as reduction in [3H]Ro 25-6981 receptor labeling administered iv incubated for 5 mins by topcount micro scintillation counting method. The format is functional, organism-based. Conditions: Membrane.

Glutamate receptor ionotropic, NMDA 2B (Homo sapiens, UniProt Q13224), sequence (Q13224 27-1484 limits assumed): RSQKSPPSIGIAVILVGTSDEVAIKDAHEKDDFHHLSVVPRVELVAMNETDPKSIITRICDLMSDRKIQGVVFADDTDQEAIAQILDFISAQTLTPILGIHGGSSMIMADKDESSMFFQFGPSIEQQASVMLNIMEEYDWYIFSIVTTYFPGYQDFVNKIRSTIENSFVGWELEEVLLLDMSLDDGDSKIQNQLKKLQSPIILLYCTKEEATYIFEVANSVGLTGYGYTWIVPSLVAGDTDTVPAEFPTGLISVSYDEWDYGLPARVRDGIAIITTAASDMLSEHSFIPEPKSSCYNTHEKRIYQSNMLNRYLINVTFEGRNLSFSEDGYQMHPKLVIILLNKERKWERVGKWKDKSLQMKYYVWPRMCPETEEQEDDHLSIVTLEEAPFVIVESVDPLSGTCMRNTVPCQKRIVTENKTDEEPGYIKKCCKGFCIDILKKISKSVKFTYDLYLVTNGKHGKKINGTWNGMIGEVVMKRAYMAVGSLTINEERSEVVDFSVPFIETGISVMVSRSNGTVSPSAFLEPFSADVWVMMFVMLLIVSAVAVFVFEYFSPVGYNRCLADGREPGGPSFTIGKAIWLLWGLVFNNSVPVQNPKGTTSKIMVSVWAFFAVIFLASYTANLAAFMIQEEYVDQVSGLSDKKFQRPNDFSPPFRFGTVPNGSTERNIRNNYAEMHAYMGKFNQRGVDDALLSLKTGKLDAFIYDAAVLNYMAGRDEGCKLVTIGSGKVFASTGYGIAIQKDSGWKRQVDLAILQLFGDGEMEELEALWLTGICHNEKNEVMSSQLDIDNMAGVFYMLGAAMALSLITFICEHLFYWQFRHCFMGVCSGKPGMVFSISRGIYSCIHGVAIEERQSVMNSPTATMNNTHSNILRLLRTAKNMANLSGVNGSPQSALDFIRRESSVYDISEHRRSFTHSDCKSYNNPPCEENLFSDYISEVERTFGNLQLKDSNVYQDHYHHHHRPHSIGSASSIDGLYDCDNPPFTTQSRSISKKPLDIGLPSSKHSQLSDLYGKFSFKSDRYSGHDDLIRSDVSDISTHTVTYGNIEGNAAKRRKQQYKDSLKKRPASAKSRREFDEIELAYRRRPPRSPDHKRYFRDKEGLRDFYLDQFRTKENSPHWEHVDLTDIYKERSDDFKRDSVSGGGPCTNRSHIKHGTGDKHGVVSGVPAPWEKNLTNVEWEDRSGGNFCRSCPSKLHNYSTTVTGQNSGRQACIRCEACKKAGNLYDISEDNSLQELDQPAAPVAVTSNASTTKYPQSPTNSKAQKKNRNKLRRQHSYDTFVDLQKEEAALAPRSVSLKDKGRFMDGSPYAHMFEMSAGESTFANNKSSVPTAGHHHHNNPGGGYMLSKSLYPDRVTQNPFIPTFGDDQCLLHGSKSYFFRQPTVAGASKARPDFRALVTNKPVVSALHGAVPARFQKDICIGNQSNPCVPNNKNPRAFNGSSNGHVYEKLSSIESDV
Glutamate receptor ionotropic, NMDA 2C (Homo sapiens), sequence (Q14957 whole entry): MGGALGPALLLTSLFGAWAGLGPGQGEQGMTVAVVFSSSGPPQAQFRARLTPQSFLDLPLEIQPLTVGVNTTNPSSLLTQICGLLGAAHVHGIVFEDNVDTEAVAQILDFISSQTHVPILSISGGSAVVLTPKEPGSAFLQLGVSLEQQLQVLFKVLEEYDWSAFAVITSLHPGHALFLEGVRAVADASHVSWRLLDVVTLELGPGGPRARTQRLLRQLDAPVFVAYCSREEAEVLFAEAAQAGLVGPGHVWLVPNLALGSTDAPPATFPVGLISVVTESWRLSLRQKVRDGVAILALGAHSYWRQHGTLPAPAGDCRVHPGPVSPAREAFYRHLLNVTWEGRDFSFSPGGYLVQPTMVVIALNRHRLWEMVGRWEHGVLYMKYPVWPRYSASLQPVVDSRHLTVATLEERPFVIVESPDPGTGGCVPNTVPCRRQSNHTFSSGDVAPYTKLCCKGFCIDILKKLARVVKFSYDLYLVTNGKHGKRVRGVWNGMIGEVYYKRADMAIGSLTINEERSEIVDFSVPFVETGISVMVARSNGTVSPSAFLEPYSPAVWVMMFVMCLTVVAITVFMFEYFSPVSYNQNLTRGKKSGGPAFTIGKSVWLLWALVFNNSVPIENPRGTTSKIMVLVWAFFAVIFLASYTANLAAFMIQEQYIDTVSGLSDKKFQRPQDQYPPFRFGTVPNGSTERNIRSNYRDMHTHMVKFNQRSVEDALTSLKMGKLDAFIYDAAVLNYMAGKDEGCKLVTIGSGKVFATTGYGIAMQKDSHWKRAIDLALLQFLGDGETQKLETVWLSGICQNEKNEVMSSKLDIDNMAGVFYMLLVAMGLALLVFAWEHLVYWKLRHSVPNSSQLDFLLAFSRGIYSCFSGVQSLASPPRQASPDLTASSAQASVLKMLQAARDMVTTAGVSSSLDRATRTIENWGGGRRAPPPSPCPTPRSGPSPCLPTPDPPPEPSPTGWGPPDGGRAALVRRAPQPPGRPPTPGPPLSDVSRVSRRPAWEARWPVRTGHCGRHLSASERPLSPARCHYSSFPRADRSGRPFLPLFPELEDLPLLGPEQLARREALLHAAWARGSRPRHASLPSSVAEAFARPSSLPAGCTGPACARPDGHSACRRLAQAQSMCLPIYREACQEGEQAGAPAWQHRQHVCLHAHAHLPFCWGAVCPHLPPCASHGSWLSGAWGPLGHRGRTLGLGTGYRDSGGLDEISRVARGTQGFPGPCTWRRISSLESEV

Take `O=C(O)c1ccc(CN2CC[C@@H](N3CC[C@@H](c4ccc(O)cc4)[C@H](F)C3)C2=O)cc1`: the inhibition entry in [1], in data set [2], in [3] and in [4] was “inactive” throughout.
For the molecule `Cc1ccc(CN2CC[C@@H](N3CCC(c4ccc(O)cc4)CC3)C2=O)cc1`, the Occ in data set [5] turned out to be 92%. In [6], this molecule returned a concentration of 220 nM. For the same molecule, the IC50 (usually the concentration that gives 50% inhibition) in data set [7] turned out to be 400 nM.
Take `Cc1ccc(CN2CC[C@@H](N3CC[C@H](c4ccc(O)cc4)[C@@H](F)C3)C2=O)cc1`: the concentration in [6] stood at 710 nM. Besides, in data set [7], the IC50 is greater than 30000 nM. Besides, the Occ in [8] came to 87%.
Turning to `Cc1ccc(CN2CC[C@@H](N3CC[C@@H](c4ccc(OP(=O)(O)O)cc4)[C@H](F)C3)C2=O)cc1`, the solubility (commonly the dissolved amount per volume that the medium holds) in data set [9] turned out to be 19.9 mg/mL (≈ 43 mM). For the same molecule, the Stability result in [10] and in data set [11] was “Stable” each time. Moreover, the Activity entry in [12], in data set [13] and in data set [14] was “Non-Toxic” each time. Moreover, the Cmax (as a rule, the peak of the concentration-time curve) in data set [15] came out at 19000 nM.
As to `Cc1ccc(CN2CC[C@@H](N3CC[C@H](c4ccc(O)cc4)[C@H](F)C3)C2=O)cc1`, in data set [6], the concentration stood at 590 nM. Further, the IC50 in data set [7] is 7800 nM. For the same molecule, in data set [8], the Occ came out at 95%.
On to `O=C1[C@H](N2CC[C@@H](c3ccc(O)cc3)[C@H](F)C2)CCN1Cc1ccc(F)cc1`, for which the Ki (commonly a dissociation constant, usually derived from enzyme kinetics or from competition with a known ligand) in data set [16] is 11 nM. For the same molecule, the concentration in data set [6] amounted to 1200 nM. For the same molecule, the IC50 in [7] is greater than 5000 nM. In addition, the Occ in data set [8] came to 81%.
In the case of `O=C1[C@H](N2CCC(c3ccc(O)cc3)CC2)CCN1Cc1ccc(F)cc1`, the Ki in [16] came to 1.4 nM. Further, the IC50 stood at 4.2 nM in data set [17] and 620 nM in data set [7]. The Occ in [18] is 60%; in data set [5], 95%; in data set [22], 75%. Besides, the concentration turned out to be 70 nM in data set [19], 340 nM in data set [20] and 150 nM in data set [6]. In addition, the Activity result in data set [21] and in data set [27] was “Dose-dependent effect” in each case. For the same molecule, the minimal effective dose in data set [21] (CD-1, iv, read-out: MED) came out at 0.56 mg/kg. The fraction unbound (usually the share of the substance not bound to proteins or other matrix) came to 0.1 in data set [23], 0.11 in [24] and 0.12 in data set [25]. The pKa (in general, the pH at which an ionisable group is half protonated) in data set [26] stood at 6.8.
Take `O=C1NCC[C@H]1N1CC[C@@H](c2ccc(O)cc2)[C@H](F)C1`: the inhibition result in [1], in data set [2], in data set [3] and in data set [4] was “inactive” in each case.
Molecule `Cc1ccc(CN2CC[C@@H](N3CCC(c4ccc(O)cc4)C(F)(F)C3)C2=O)cc1` (some centres not stated) returned a concentration in [6] of 2500 nM. In data set [7], the IC50 is greater than 30000 nM. Besides, in data set [8], the Occ is recorded as 93%.
